# From US10835531B1, “Methods for predicting drug responsiveness in cancer patients” (Oncology Venture ApS, priority 2019, dated 2020)
# Experiments:
# [1] = test system: patients with RCC, GIST, endometrial cancer, HCC or breast cancer; assay: Clinical response rate as a function of DRP cutoff, all five cohorts of Examples 2-6; assay type: in vivo, human
# Description: Gene expression data (Affymetrix) and clinical response data was obtained from 73 patients in the dovitinib arm. The DRP was applied to calculate a score for each patient (mean of genes in Table 2 minus mean of genes in Table 3). The score for each patient was compared to a reference population with the same diagnosis. For the reference population the dovitinib and sorafenib arms were combined (N=148). This allowed the calculation of a percentile score for each patient. Patients were grouped according to RECIST v1.1 response (centrally assessed) and included in FIG. 1.
# Gene expression data (Affymetrix) and clinical response data was obtained from 14 patients. The DRP was applied to calculate a score for each patient (mean of genes in Table 2 minus mean of genes in Table 3). The score for each patient was compared to a reference population with the same diagnosis. For the reference population public data sets were downloaded from the GEO database (GSE20708, GSE17743, GSE8167, N=83). This allowed the calculation of a percentile score for each patient. Patients were grouped according to RECIST v1.1 response (locally assessed, no central assessment) and included in FIG. 1.
# Gene expression data (Affymetrix) and clinical response data was obtained from 29 patients. The DRP was applied to calculate a score for each patient (mean of genes in Table 2 minus mean of genes in Table 3). The score for each patient was compared to a reference population with the same diagnosis. For the reference population a public data set was downloaded from the GEO database (GSE17025, N=91). This allowed the calculation of a percentile score for each patient. Patients were grouped according to RECIST v1.1 response (central assessment) and included in FIG. 1.
# Gene expression data (Affymetrix) and clinical response data was obtained from 6 patients in the dovitinib arm. The DRP was applied to calculate a score for each patient (mean of genes in Table 2 minus mean of genes in Table 3). The score for each patient was compared to a reference population with the same diagnosis. […]
# HL-60(TB) = assay: NCI60 panel growth inhibition; assay type: cell-based; conditions: Homo sapiens; HL-60(TB) cell line
# Description: The human tumor cell lines of the cancer screening panel may be grown in RPMI 1640 medium containing 5% fetal bovine serum and 2 mM L-glutamine. Cells may be inoculated into 96 well microtiter plates in 100 μL at plating densities ranging from 5,000 to 40,000 cells/well depending on the doubling time of individual cell lines. After cell inoculation, the microtiter plates may be incubated at 37° C., 5% CO2, 95% air and 100% relative humidity for 24 hours prior to addition of experimental compounds. After 24 hours, two plates of each cell line may be fixed in situ with TCA, to represent a measurement of the cell population for each cell line at the time of compound addition (Tz). Experimental compounds may be solubilized in dimethyl sulfoxide at 400-fold the desired final maximum test concentration and stored frozen prior to use. […] Bound stain may be subsequently solubilized with 10 mM trizma base, and the absorbance may be read on an automated plate reader at a wavelength of 515 nm. […] Using the seven absorbance measurements [time zero, (Tz), control growth, (C), and test growth in the presence of compound (e.g., dovitinib or a pharmaceutically acceptable salt thereof) at the five concentration levels (Ti)], the percentage growth may be calculated at each of the compound concentrations levels. […] The compound concentration resulting in total growth inhibition (TGI) is calculated from Ti=Tz. […]
# SW-620 = assay: NCI60 panel growth inhibition; assay type: cell-based; conditions: Homo sapiens; SW-620 cell line
# Description: (§1) The human tumor cell lines of the cancer screening panel may be grown in RPMI 1640 medium containing 5% fetal bovine serum and 2 mM L-glutamine. Cells may be inoculated into 96 well microtiter plates in 100 μL at plating densities ranging from 5,000 to 40,000 cells/well depending on the doubling time of individual cell lines. After cell inoculation, the microtiter plates may be incubated at 37° C., 5% CO2, 95% air and 100% relative humidity for 24 hours prior to addition of experimental compounds. After 24 hours, two plates of each cell line may be fixed in situ with TCA, to represent a measurement of the cell population for each cell line at the time of compound addition (Tz). Experimental compounds may be solubilized in dimethyl sulfoxide at 400-fold the desired final maximum test concentration and stored frozen prior to use. At the time of compound (e.g., dovitinib or a pharmaceutically acceptable salt thereof) addition, an aliquot of frozen concentrate may be thawed and diluted to twice the desired final maximum test concentration with complete medium containing 50 μg/ml Gentamicin. Additional four, 10-fold or ½ log serial dilutions are made to provide a total of five concentrations plus control. […] Following compound (e.g., dovitinib or a pharmaceutically acceptable salt thereof) addition, the plates may be incubated for an additional 48 h at 37° C., 5% CO2, 95% air, and 100% relative humidity. For adherent cells, the assay may be terminated by the addition of cold TCA. Cells may be fixed in situ by the gentle addition of 50 μl of cold 50% (w/v) TCA (final concentration, 10% TCA) and incubated for 60 minutes at 4° C. The supernatant may be discarded, and the plates may be washed five times with tap water and air-dried. Sulforhodamine B (SRB) solution (100 μl) at 0.4% (w/v) in 1% acetic acid may be added to each well, and plates are incubated for 10 minutes at room temperature. After staining, unbound dye may be removed by washing five times with 1% acetic acid and the plates may be air-dried. […] Values are calculated for each of these three parameters if the level of activity is reached; however, if the effect is not reached or is exceeded, the value for that parameter is expressed as greater or less than the maximum or minimum concentration tested.
# PC-3 = assay: NCI60 panel growth inhibition; assay type: cell-based; conditions: Homo sapiens; PC-3 cell line
# Description: as §1
# SF-295 = assay: NCI60 panel growth inhibition; assay type: cell-based; conditions: Homo sapiens; SF-295 cell line
# Description: as §1
# SK-MEL-2 = assay: NCI60 panel growth inhibition; assay type: cell-based; conditions: Homo sapiens; SK-MEL-2 cell line
# Description: as §1
# OVCAR-3 = assay: NCI60 panel growth inhibition; assay type: cell-based; conditions: Homo sapiens; OVCAR-3 cell line
# Description: as §1
# TK-10 = assay: NCI60 panel growth inhibition; assay type: cell-based; conditions: Homo sapiens; TK-10 cell line
# Description: as §1
# UO-31 = assay: NCI60 panel growth inhibition; assay type: cell-based; conditions: Homo sapiens; UO-31 cell line
# Description: as §1
# SNB-75 = assay: NCI60 panel growth inhibition; assay type: cell-based; conditions: Homo sapiens; SNB-75 cell line
# Description: as §1
# BT-549 = assay: NCI60 panel growth inhibition; assay type: cell-based; conditions: Homo sapiens; BT-549 cell line
# Description: as §1
# NCl-H460 = assay: NCI60 panel growth inhibition; assay type: cell-based; conditions: Homo sapiens; NCl-H460 cell line
# Description: as §1
# LOX IMVI = assay: NCI60 panel growth inhibition; assay type: cell-based; conditions: Homo sapiens; LOX IMVI cell line
# Description: as §1
# UACC-257 = assay: NCI60 panel growth inhibition; assay type: cell-based; conditions: Homo sapiens; UACC-257 cell line
# Description: as §1
# UACC-62 = assay: NCI60 panel growth inhibition; assay type: cell-based; conditions: Homo sapiens; UACC-62 cell line
# Description: as §1
# CAKI-1 = assay: NCI60 panel growth inhibition; assay type: cell-based; conditions: Homo sapiens; CAKI-1 cell line
# Description: as §1
# SF-268 = assay: NCI60 panel growth inhibition; assay type: cell-based; conditions: Homo sapiens; SF-268 cell line
# Description: as §1
# M14 = assay: NCI60 panel growth inhibition; assay type: cell-based; conditions: Homo sapiens; M14 cell line
# Description: as §1
# EKVX = assay: NCI60 panel growth inhibition; assay type: cell-based; conditions: Homo sapiens; EKVX cell line
# Description: as §1
# RPMI-8226 = assay: NCI60 panel growth inhibition; assay type: cell-based; conditions: Homo sapiens; RPMI-8226 cell line
# Description: as §1
# OVCAR-8 = assay: NCI60 panel growth inhibition; assay type: cell-based; conditions: Homo sapiens; OVCAR-8 cell line
# Description: as §1
# HCT-116 = assay: NCI60 panel growth inhibition; assay type: cell-based; conditions: Homo sapiens; HCT-116 cell line
# Description: as §1
# KM12 = assay: NCI60 panel growth inhibition; assay type: cell-based; conditions: Homo sapiens; KM12 cell line
# Description: as §1
# MDA-MB-435 = assay: NCI60 panel growth inhibition; assay type: cell-based; conditions: Homo sapiens; MDA-MB-435 cell line
# Description: as §1
# NCl/ADR-RES = assay: NCI60 panel growth inhibition; assay type: cell-based; conditions: Homo sapiens; NCl/ADR-RES cell line
# Description: as §1
# T-47D = assay: NCI60 panel growth inhibition; assay type: cell-based; conditions: Homo sapiens, T47D; T-47D cell line
# Description: as §1
# NCl-H322M = assay: NCI60 panel growth inhibition; assay type: cell-based; conditions: Homo sapiens; NCl-H322M cell line
# Description: as §1
# COLO 205 = assay: NCI60 panel growth inhibition; assay type: cell-based; conditions: Homo sapiens; COLO 205 cell line
# Description: as §1
# HCT-15 = assay: NCI60 panel growth inhibition; assay type: cell-based; conditions: Homo sapiens; HCT-15 cell line
# Description: as §1
# IGROV1 = assay: NCI60 panel growth inhibition; assay type: cell-based; conditions: Homo sapiens, IGROV-1; IGROV1 cell line
# Description: as §1
# HOP-92 = assay: NCI60 panel growth inhibition; assay type: cell-based; conditions: Homo sapiens; HOP-92 cell line
# Description: as §1
# A549/ATCC = assay: NCI60 panel growth inhibition; assay type: cell-based; conditions: Homo sapiens; A549/ATCC cell line
# Description: as §1
# HOP-62 = assay: NCI60 panel growth inhibition; assay type: cell-based; conditions: Homo sapiens; HOP-62 cell line
# Description: as §1
# SR = assay: NCI60 panel growth inhibition; assay type: cell-based; conditions: Homo sapiens; SR cell line
# Description: as §1
# NCl-H23 = assay: NCI60 panel growth inhibition; assay type: cell-based; conditions: Homo sapiens; NCl-H23 cell line
# Description: as §1
# NCl-H226 = assay: NCI60 panel growth inhibition; assay type: cell-based; conditions: Homo sapiens; NCl-H226 cell line
# Description: as §1
# K-562 = assay: NCI60 panel growth inhibition; assay type: cell-based; conditions: Homo sapiens, K562; K-562 cell line
# Description: as §1
# NCl-H522 = assay: NCI60 panel growth inhibition; assay type: cell-based; conditions: Homo sapiens; NCl-H522 cell line
# Description: as §1
# HS 578T = assay: NCI60 panel growth inhibition; assay type: cell-based; conditions: Homo sapiens; HS 578T cell line
# Description: as §1
# OVCAR-4 = assay: NCI60 panel growth inhibition; assay type: cell-based; conditions: Homo sapiens; OVCAR-4 cell line
# Description: as §1
# SF-539 = assay: NCI60 panel growth inhibition; assay type: cell-based; conditions: Homo sapiens; SF-539 cell line
# Description: as §1
# SN12C = assay: NCI60 panel growth inhibition; assay type: cell-based; conditions: Homo sapiens; SN12C cell line
# Description: as §1
# 786-0 = assay: NCI60 panel growth inhibition; assay type: cell-based; conditions: Homo sapiens; 786-0 cell line
# Description: as §1
# OVCAR-5 = assay: NCI60 panel growth inhibition; assay type: cell-based; conditions: Homo sapiens; OVCAR-5 cell line
# Description: as §1
# MALME-3M = assay: NCI60 panel growth inhibition; assay type: cell-based; conditions: Homo sapiens; MALME-3M cell line
# Description: as §1
# MOLT-4 = assay: NCI60 panel growth inhibition; assay type: cell-based; conditions: Homo sapiens; MOLT-4 cell line
# Description: as §1
# MDA-MB-231/ATCC = assay: NCI60 panel growth inhibition; assay type: cell-based; conditions: Homo sapiens; MDA-MB-231/ATCC cell line
# Description: as §1
# MCF7 = assay: NCI60 panel growth inhibition; assay type: cell-based; conditions: Homo sapiens; MCF7 cell line
# Description: as §1
# MDA-MB-468 = assay: NCI60 panel growth inhibition; assay type: cell-based; conditions: Homo sapiens; MDA-MB-468 cell line
# Description: as §1
# SK-MEL-5 = assay: NCI60 panel growth inhibition; assay type: cell-based; conditions: Homo sapiens; SK-MEL-5 cell line
# Description: as §1
# DU-145 = assay: NCI60 panel growth inhibition; assay type: cell-based; conditions: Homo sapiens; DU-145 cell line
# Description: as §1
# A498 = assay: NCI60 panel growth inhibition; assay type: cell-based; conditions: Homo sapiens; A498 cell line
# Description: as §1
# ACHN = assay: NCI60 panel growth inhibition; assay type: cell-based; conditions: Homo sapiens; ACHN cell line
# Description: as §1
# SK-OV-3 = assay: NCI60 panel growth inhibition; assay type: cell-based; conditions: Homo sapiens; SK-OV-3 cell line
# Description: as §1
# SK-MEL-28 = assay: NCI60 panel growth inhibition; assay type: cell-based; conditions: Homo sapiens; SK-MEL-28 cell line
# Description: as §1
# HCC-2998 = assay: NCI60 panel growth inhibition; assay type: cell-based; conditions: Homo sapiens; HCC-2998 cell line
# Description: as §1
# RXF 393 = assay: NCI60 panel growth inhibition; assay type: cell-based; conditions: Homo sapiens; RXF 393 cell line
# Description: as §1
# CCRF-CEM = assay: NCI60 panel growth inhibition; assay type: cell-based; conditions: Homo sapiens; CCRF-CEM cell line
# Description: as §1
# HT29 = assay: NCI60 panel growth inhibition; assay type: cell-based; conditions: Homo sapiens, HT-29; HT29 cell line
# Description: as §1
# U251 = assay: NCI60 panel growth inhibition; assay type: cell-based; conditions: Homo sapiens, U-251; U251 cell line
# Description: as §1
# SNB-19 = assay: NCI60 panel growth inhibition; assay type: cell-based; conditions: Homo sapiens; SNB-19 cell line
# Description: as §1
structure (smiles),measurement,setting,value
"CN1CCN(c2ccc3nc(-c4c(N)c5c(F)cccc5[nH]c4=O)[nH]c3c2)CC1 [dovitinib, 4-amino-5-fluoro-3-[6-(4-methylpiperazin-1-yl)-1H-benzimidazol-2-yl]-1H-quinolin-2-one]",overall response rate (ORR=CR+PR),"[1]; all five cohorts from Examples 2-6, patients at DRP cutoff of 50",26%
same,overall response rate (ORR=CR+PR),"[1]; all five cohorts from Examples 2-6, patients at DRP cutoff of 80",35%
same,average overall response rate (ORR=CR+PR),"[1]; all five cohorts from Examples 2-6, without the DRP (breast cohort received dovitinib plus fulvestrant)",16%
same,GI50,HL-60(TB),1070 nM
same,GI50,SW-620,550 nM
same,GI50,PC-3,1120 nM
same,GI50,SF-295,6030 nM
same,GI50,SK-MEL-2,891 nM
same,GI50,OVCAR-3,6760 nM
same,GI50,TK-10,7760 nM
same,GI50,UO-31,219 nM
same,GI50,SNB-75,977 nM
same,GI50,BT-549,1050 nM
same,GI50,NCl-H460,468 nM
same,GI50,LOX IMVI,871 nM
same,GI50,UACC-257,3390 nM
same,GI50,UACC-62,3630 nM
same,GI50,CAKI-1,468 nM
same,GI50,SF-268,2190 nM
same,GI50,M14,389 nM
same,GI50,EKVX,7590 nM
same,GI50,RPMI-8226,1480 nM
same,GI50,OVCAR-8,1450 nM
same,GI50,HCT-116,417 nM
same,GI50,KM12,41.7 nM
same,GI50,MDA-MB-435,1070 nM
same,GI50,NCl/ADR-RES,2690 nM
same,GI50,T-47D,10000 nM
same,GI50,NCl-H322M,759 nM
same,GI50,COLO 205,2240 nM
same,GI50,HCT-15,427 nM
same,GI50,IGROV1,251 nM
same,GI50,HOP-92,355 nM
same,GI50,A549/ATCC,562 nM
same,GI50,HOP-62,1450 nM
same,GI50,SR,447 nM
same,GI50,NCl-H23,2450 nM
same,GI50,NCl-H226,355 nM
same,GI50,K-562,550 nM
same,GI50,NCl-H522,3160 nM
same,GI50,HS 578T,977 nM
same,GI50,OVCAR-4,575 nM
same,GI50,SF-539,427 nM
same,GI50,SN12C,676 nM
same,GI50,786-0,724 nM
same,GI50,OVCAR-5,1780 nM
same,GI50,MALME-3M,490 nM
same,GI50,MOLT-4,331 nM
same,GI50,MDA-MB-231/ATCC,2340 nM
same,GI50,MCF7,1170 nM
same,GI50,MDA-MB-468,2570 nM
same,GI50,SK-MEL-5,1780 nM
same,GI50,DU-145,1150 nM
same,GI50,A498,135 nM
same,GI50,ACHN,331 nM
same,GI50,SK-OV-3,513 nM
same,GI50,SK-MEL-28,1480 nM
same,GI50,HCC-2998,1320 nM
same,GI50,RXF 393,219 nM
same,GI50,CCRF-CEM,589 nM
same,GI50,HT29,1410 nM
same,GI50,U251,550 nM
same,GI50,SNB-19,2630 nM
